# Assay results as given in ChEMBL document CHEMBL3885861, “Open TG-GATES”.
# Organism: Rattus norvegicus
# Experiment: Open TG-GATES - Regimen: Daily Repeat
# Format: toxicity, organism-based, Sprague-Dawley
# Set-up: regimen Daily Repeat, gender Male, age 6 weeks
# Conditions: in vivo, po, 20 mg/kg, route gavage, dose level Middle; for APTT / Bas / Eos / Fbg / Hb / Ht / Lym / MCH / MCHC / MCV / Mono / Neu / PT / Plat / RBC / Ret / WBC: tissue Blood; for LIVER: tissue Liver; for A/G / ALP / ALT / AST / BUN / CRE / Ca / Cl / DBIL / GLC / IP / K / LDH / Na / PL / RALB / TBIL / TC / TG / TP / gamma-GTP: tissue Plasma
smiles,measurement,setting,value
"O=[N+]([O-])c1ccc(O)c([N+](=O)[O-])c1 [2,4-DINITROPHENOL]",TERMINAL_BW,"72 h, time 3 day",243.1 g
same,APTT,"72 h, time 3 day",15.4 s
same,Bas,"72 h, time 3 day",0%
same,Eos,"72 h, time 3 day",1.2%
same,Fbg,"72 h, time 3 day",283.4 mg/dL
same,Hb,"72 h, time 3 day",13.6 g/dL
same,Ht,"72 h, time 3 day",40.4%
same,Lym,"72 h, time 3 day",77%
same,MCH,"72 h, time 3 day",22.4 pg
same,MCHC,"72 h, time 3 day",33.7%
same,MCV,"72 h, time 3 day",66.4 fL
same,Mono,"72 h, time 3 day",5%
same,Neu,"72 h, time 3 day",17%
same,PT,"72 h, time 3 day",11.4 s
same,Plat,"72 h, time 3 day",131.6 x10_4/uL
same,RBC,"72 h, time 3 day",609.2 x10_4/ul
same,Ret,"72 h, time 3 day",7.3%
same,WBC,"72 h, time 3 day",124.2 x10_2/uL
same,LIVER,"72 h, time 3 day",12.1 g
same,A/G,"72 h, time 3 day",2.4
same,ALP,"72 h, time 3 day",1368.6 IU/L
same,ALT,"72 h, time 3 day",36.6 IU/L
same,AST,"72 h, time 3 day",61.6 IU/L
same,BUN,"72 h, time 3 day",15.2 mg/dL
same,CRE,"72 h, time 3 day",0.4 mg/dL
same,Ca,"72 h, time 3 day",11.4 mg/dL
same,Cl,"72 h, time 3 day",104.2 meq/L
same,DBIL,"72 h, time 3 day",0.01 mg/dL
same,GLC,"72 h, time 3 day",182.6 mg/dL
same,IP,"72 h, time 3 day",7.3 mg/dL
same,K,"72 h, time 3 day",4.8 meq/L
same,LDH,"72 h, time 3 day",128.4 IU/L
same,Na,"72 h, time 3 day",138.2 meq/L
same,PL,"72 h, time 3 day",165.4 mg/dL
same,RALB,"72 h, time 3 day",3.9 g/dL
same,TBIL,"72 h, time 3 day",0.022 mg/dL
same,TC,"72 h, time 3 day",93 mg/dL
same,TG,"72 h, time 3 day",134.6 mg/dL
same,TP,"72 h, time 3 day",5.6 g/dL
same,gamma-GTP,"72 h, time 3 day",0.2 IU/L
same,TERMINAL_BW,"[…], time 7 day",277.1 g
same,TERMINAL_BW,"[…], time 14 day",351 g
same,TERMINAL_BW,"[…], time 28 day",428.8 g
same,APTT,"[…], time 7 day",16.2 s
same,Bas,"[…], time 7 day",0%
same,Eos,"[…], time 7 day",0.8%
same,Fbg,"[…], time 7 day",259.6 mg/dL
same,Hb,"[…], time 7 day",13.7 g/dL
same,Ht,"[…], time 7 day",40.8%
same,Lym,"[…], time 7 day",71.4%
same,MCH,"[…], time 7 day",21.3 pg
same,MCHC,"[…], time 7 day",33.6%
same,MCV,"[…], time 7 day",63.3 fL
same,Mono,"[…], time 7 day",9%
same,Neu,"[…], time 7 day",19%
same,PT,"[…], time 7 day",11.8 s
same,Plat,"[…], time 7 day",128 x10_4/uL
same,RBC,"[…], time 7 day",644.2 x10_4/ul
same,Ret,"[…], time 7 day",5.5%
same,WBC,"[…], time 7 day",102 x10_2/uL
same,APTT,"[…], time 14 day",16.3 s
same,Bas,"[…], time 14 day",0%
same,Eos,"[…], time 14 day",0.6%
same,Fbg,"[…], time 14 day",267 mg/dL
same,Hb,"[…], time 14 day",13.9 g/dL
same,Ht,"[…], time 14 day",41.3%
same,Lym,"[…], time 14 day",77.6%
same,MCH,"[…], time 14 day",21 pg
same,MCHC,"[…], time 14 day",33.8%
same,MCV,"[…], time 14 day",62.2 fL
same,Mono,"[…], time 14 day",6%
same,Neu,"[…], time 14 day",15.8%
same,PT,"[…], time 14 day",11.8 s
same,Plat,"[…], time 14 day",128 x10_4/uL
same,RBC,"[…], time 14 day",663.8 x10_4/ul
same,Ret,"[…], time 14 day",4.4%
same,WBC,"[…], time 14 day",125.8 x10_2/uL
same,APTT,"[…], time 28 day",17.1 s
same,Bas,"[…], time 28 day",0%
same,Eos,"[…], time 28 day",1%
same,Fbg,"[…], time 28 day",281.8 mg/dL
same,Hb,"[…], time 28 day",14.9 g/dL
same,Ht,"[…], time 28 day",44%
same,Lym,"[…], time 28 day",82.4%
same,MCH,"[…], time 28 day",20 pg
same,MCHC,"[…], time 28 day",33.8%
same,MCV,"[…], time 28 day",59.1 fL
same,Mono,"[…], time 28 day",5%
same,Neu,"[…], time 28 day",11.6%
same,PT,"[…], time 28 day",12 s
same,Plat,"[…], time 28 day",122 x10_4/uL
same,RBC,"[…], time 28 day",744.2 x10_4/ul
same,Ret,"[…], time 28 day",2.6%
same,WBC,"[…], time 28 day",118.2 x10_2/uL
same,LIVER,"[…], time 7 day",13.6 g
same,LIVER,"[…], time 14 day",17.5 g
same,LIVER,"[…], time 28 day",19.1 g
same,A/G,"[…], time 7 day",2.3
same,ALP,"[…], time 7 day",1592.8 IU/L
same,ALT,"[…], time 7 day",33.4 IU/L
same,AST,"[…], time 7 day",63 IU/L
same,BUN,"[…], time 7 day",18.4 mg/dL
same,CRE,"[…], time 7 day",0.4 mg/dL
same,Ca,"[…], time 7 day",11.4 mg/dL
same,Cl,"[…], time 7 day",105.4 meq/L
same,DBIL,"[…], time 7 day",0.012 mg/dL
same,GLC,"[…], time 7 day",182 mg/dL
same,IP,"[…], time 7 day",7.2 mg/dL
same,K,"[…], time 7 day",4.8 meq/L
same,LDH,"[…], time 7 day",111.6 IU/L
same,Na,"[…], time 7 day",139.4 meq/L
same,PL,"[…], time 7 day",149.6 mg/dL
same,RALB,"[…], time 7 day",3.9 g/dL
same,TBIL,"[…], time 7 day",0.02 mg/dL
same,TC,"[…], time 7 day",77.4 mg/dL
same,TG,"[…], time 7 day",148.2 mg/dL
same,TP,"[…], time 7 day",5.6 g/dL
same,gamma-GTP,"[…], time 7 day",0.4 IU/L
same,A/G,"[…], time 14 day",2.1
same,ALP,"[…], time 14 day",983.2 IU/L
same,ALT,"[…], time 14 day",33.4 IU/L
same,AST,"[…], time 14 day",64.2 IU/L
same,BUN,"[…], time 14 day",19 mg/dL
same,CRE,"[…], time 14 day",0.3 mg/dL
same,Ca,"[…], time 14 day",11.8 mg/dL
same,Cl,"[…], time 14 day",104.4 meq/L
same,DBIL,"[…], time 14 day",0.014 mg/dL
same,GLC,"[…], time 14 day",180.4 mg/dL
same,IP,"[…], time 14 day",6.9 mg/dL
same,K,"[…], time 14 day",4.5 meq/L
same,LDH,"[…], time 14 day",99.8 IU/L
same,Na,"[…], time 14 day",137 meq/L
same,PL,"[…], time 14 day",151.2 mg/dL
same,RALB,"[…], time 14 day",4 g/dL
same,TBIL,"[…], time 14 day",0.022 mg/dL
same,TC,"[…], time 14 day",74.2 mg/dL
same,TG,"[…], time 14 day",190.4 mg/dL
same,TP,"[…], time 14 day",6 g/dL
same,gamma-GTP,"[…], time 14 day",0 IU/L
same,A/G,"[…], time 28 day",1.9
same,ALP,"[…], time 28 day",871.8 IU/L
same,ALT,"[…], time 28 day",31.8 IU/L
same,AST,"[…], time 28 day",63.4 IU/L
same,BUN,"[…], time 28 day",18.2 mg/dL
same,CRE,"[…], time 28 day",0.5 mg/dL
same,Ca,"[…], time 28 day",11.2 mg/dL
same,Cl,"[…], time 28 day",104.6 meq/L
same,DBIL,"[…], time 28 day",0.012 mg/dL
same,GLC,"[…], time 28 day",180.8 mg/dL
same,IP,"[…], time 28 day",6.6 mg/dL
same,K,"[…], time 28 day",4.3 meq/L
same,LDH,"[…], time 28 day",117.2 IU/L
same,Na,"[…], time 28 day",141 meq/L
same,PL,"[…], time 28 day",133.4 mg/dL
same,RALB,"[…], time 28 day",4.1 g/dL
same,TBIL,"[…], time 28 day",0.016 mg/dL
same,TC,"[…], time 28 day",67.6 mg/dL
same,TG,"[…], time 28 day",155.6 mg/dL
same,TP,"[…], time 28 day",6.2 g/dL
same,gamma-GTP,"[…], time 28 day",0.4 IU/L
